Reference: patent US8906860B2, “Methods and compositions inhibiting tumor cell proliferation” (The Board of Trustees of the University of Illinois, priority 2011, dated 2014)
Like-named read-outs stand apart in the source and are kept apart here. Square brackets hold non-standard residues; d marks the D form. Peptide text beside a SMILES is read from it.

Key:
[1] = system: S2 cells; settings: 24 hours
Procedure: TUNEL assay was used to measure apoptosis in S2 cells treated with WT-blocked, mutant-blocked or WT-unblocked (D-Arg)9-p19^ARF 26-44 peptides. (D-Arg)9-p19^ARF 26-44 peptide treatment of cells was performed in 8-well chamber slides for TUNEL staining. On Day 0, 20,000 cells per well were seeded in the 8-well chamber slides. On Day 1, slides were replenished with fresh media containing one of the following concentrations of either WT-blocked, mutant-blocked or WT-unblocked (D-Arg)9-p19^ARF 26-44 peptides: 10, 15, 25, 30, 40 and 70 μM for 24 hours. On Day 2, TUNEL staining was performed following the manufacture's protocol (ApopTag® Fluorescein In Situ Apoptosis Detection Kit from CHEMICON® International, S7110). The percent of apoptosis of S2 cells (±SD) was measured by counting the number of TUNEL-positive cells (green fluorescence) per 1,000 nuclei as visualized by DAPI (blue fluorescence) counterstaining. The experiment was repeated in a second experiment using the same protocol. Statistical analysis and EC50 calculation were performed using GraphPad Prism software.

[2] = system: p53 null thymic lymphoma cells; experiment: Kidney colonization of intravenously injected p53 null thymic lymphoma cells in SCID mice; assay type: in vivo, mouse; settings: 2.5 mg/kg intraperitoneal every other day, 10 injections
Procedure: (§1) These experiments were performed to determine if modifying the termini conferred any advantages on these peptides when administered to an animal. Both wild type ARF 26-44 (rrrrrrrrrKFVRSRRPRTASCALAFVN) (SEQ ID NO 10) and mutant ARF 37-44 (rrrrrrrrrSCALAFVN) (SEQ ID NO 21) peptides were synthesized by Genemed Synthesis Inc. (San Antonio, Tex.). The N-terminus of each peptide was fused with nine D-Arg(r) residues. Both wild type and mutant peptides were blocked with amidation on C-terminus and acetylation on N-terminus. For sarcoma cells, mice were treated with 5 mg/kg body weight of peptide every other day for 10 times. For lymphoma cells, mice were treated with 2.5 mg/kg body weight of peptide every other day for 10 times.
To test the therapeutic effect of the ARF-peptide on p53 null tumors in vivo, p53 null lymphoma/sarcoma cells were introduced into the circulation of SCID mice through intravenous injection. ICR SCID mice were obtained from Taconic Farms (Germantown, N.Y.). Both p53 null sarcoma and lymphoma cells were stably transduced before injection with lentivirus carrying a gene conferring luciferase expression. Specifically, cells were stably transduced with pFU-L2G luciferase construct obtained from Sanjiv Sam Gambhir (M. D., Ph.D) of Stanford University as optimized by Dr. Huiping Liu (Liu et al., Proc Natl Acad Sci USA, 107: 18115-18120). This construct enabled expression of both the bioluminescence and green fluorescence protein. eGFP positive cells were sorted by Beckman Coulter MoFlo. 3×10^6 cells were suspended in cold PBS and injected through the tail vein of SCID mice. Live animal imaging was performed using an IVIS Spectrum optical imaging machine (Caliper Life Sciences, Alameda, Calif.). […] Mice were randomized into three groups and were treated with PBS, mutant-peptide or the wild type ARF-peptide for 10 injections every other day by intraperitoneal injection. […] The mice were sacrificed and lung sections were analyzed for tumor colonies. […] For the p53 null thymic lymphoma cells, metastatic growth in kidney was observed, consistent with murine thymic lymphoma cells having a tendency to colonize kidney, liver and spleen (Aoudjit et al., 1998, Blood, 91: 623-629).

[3] = system: p53 null sarcoma cells; experiment: In vitro peptide treatment of p53 null sarcoma cells (viability, TUNEL); assay type: cell-based, mouse; settings: 24 hours
[4] = system: p53 null thymic lymphoma cell lines L1 and L2; experiment: In vitro peptide treatment of p53 null thymic lymphoma cells (viability, TUNEL); assay type: cell-based, mouse; settings: one day after treatment
[5] = system: p53 null sarcoma cells; experiment: Lung colonization of intravenously injected p53 null sarcoma cells in SCID mice; assay type: in vivo, mouse; settings: 5 mg/kg intraperitoneal every other day, 10 injections
Procedure: as §1
To test the therapeutic effect of the ARF-peptide on p53 null tumors in vivo, p53 null lymphoma/sarcoma cells were introduced into the circulation of SCID mice through intravenous injection. ICR SCID mice were obtained from Taconic Farms (Germantown, N.Y.). Both p53 null sarcoma and lymphoma cells were stably transduced before injection with lentivirus carrying a gene conferring luciferase expression. Specifically, cells were stably transduced with pFU-L2G luciferase construct obtained from Sanjiv Sam Gambhir (M. D., Ph.D) of Stanford University as optimized by Dr. Huiping Liu (Liu et al., Proc Natl Acad Sci USA, 107: 18115-18120). This construct enabled expression of both the bioluminescence and green fluorescence protein. eGFP positive cells were sorted by Beckman Coulter MoFlo. 3×10^6 cells were suspended in cold PBS and injected through the tail vein of SCID mice. Live animal imaging was performed using an IVIS Spectrum optical imaging machine (Caliper Life Sciences, Alameda, Calif.). […] Mice were randomized into three groups and were treated with PBS, mutant-peptide or the wild type ARF-peptide for 10 injections every other day by intraperitoneal injection. […] The mice were sacrificed and lung sections were analyzed for tumor colonies. […]

CC(=O)N[C@H](CCCNC(=N)N)C(=O)N[C@H](CCCNC(=N)N)C(=O)N[C@H](CCCNC(=N)N)C(=O)N[C@H](CCCNC(=N)N)C(=O)N[C@H](CCCNC(=N)N)C(=O)N[C@H](CCCNC(=N)N)C(=O)N[C@H](CCCNC(=N)N)C(=O)N[C@H](CCCNC(=N)N)C(=O)N[C@H](CCCNC(=N)N)C(=O)N[C@@H](CCCCN)C(=O)N[C@@H](Cc1ccccc1)C(=O)N[C@H](C(=O)N[C@@H](CCCNC(=N)N)C(=O)N[C@@H](CO)C(=O)N[C@@H](CCCNC(=N)N)C(=O)N[C@@H](CCCNC(=N)N)C(=O)N1CCC[C@H]1C(=O)N[C@@H](CCCNC(=N)N)C(=O)N[C@H](C(=O)N[C@@H](C)C(=O)N[C@@H](CO)C(=O)N[C@@H](CS)C(=O)N[C@@H](C)C(=O)N[C@@H](CC(C)C)C(=O)N[C@@H](C)C(=O)N[C@@H](Cc1ccccc1)C(=O)N[C@H](C(=O)N[C@@H](CC(N)=O)C(N)=O)C(C)C)[C@@H](C)O)C(C)C [WT Blocked, rrrrrrrrrKFVRSRRPRTASCALAFVN] (Ac-[dR][dR][dR][dR][dR][dR][dR][dR][dR]KFVRSRRPRTASCALAFVN-NH2)
% of TUNEL Positive S2 Cells, Mean ([1]; Experiment 1, 10 μM/Well): 0.46% | % of TUNEL Positive S2 Cells, Mean ([1]; Experiment 1, 25 μM/Well): 20.27% | % of TUNEL Positive S2 Cells, Mean ([1]; Experiment 1, 30 μM/Well): 57.78% | % of TUNEL Positive S2 Cells, Mean ([1]; Experiment 1, 40 μM/Well): 98.48% | % of TUNEL Positive S2 Cells, Mean ([1]; Experiment 2, 10 μM/Well): 12.91% | % of TUNEL Positive S2 Cells, Mean ([1]; Experiment 2, 15 μM/Well): 13.6% | % of TUNEL Positive S2 Cells, Mean ([1]; Experiment 2, 25 μM/Well): 39.48% | % of TUNEL Positive S2 Cells, Mean ([1]; Experiment 2, 30 μM/Well): 47.52% | % of TUNEL Positive S2 Cells, Mean ([1]; Experiment 2, 40 μM/Well): 70.17% | Apoptosis induction compared between peptides (TUNEL) ([1]; S2 cells, 10-70 μM): induced significantly higher apoptosis compared to WT-unblocked and mutant-blocked | Kidney tumor mass at sacrifice [2]: retained their original size and structure, with only a small white mass beginning to build up on the surface of the kidney | Luciferase signal from colonized lymphoma cells ([2]; around 20 days after inoculation): emitted very little fluorescence | Viability and apoptosis (TUNEL) after peptide treatment [3]: A similar effect was observed in p53 null sarcoma cells | Apoptosis of cells after peptide treatment [4]: underwent apoptosis | Number of viable cells versus mutant-peptide or PBS [4]: much less | Number of lung tumor colonies larger than 100 μm×100 μm [5]: A reduced number of tumor colonies | Tumors on the surface of the lungs [5]: fewer tumors were observed on the surface of the lungs | Luciferase signal from mice ([5]; 20 days after inoculation): significantly reduced
